Data published in patent US11691972B2, “Compounds for targeted degradation of BRD9” (C4 Therapeutics, Inc., priority 2020, dated 2023).

Experiments:
Plasma stability, mouse = assay type: in vitro ADME
Plasma stability, rat = assay type: in vitro ADME
IV PK, mouse = assay type: in vivo; conditions: for IV PK AUC(0-last) / IV PK Cmax: dose-normalised; for clearance / Vd / half-life: in vivo; for clearance: read-out: IV PK CL; for Vd: read-out: IV PK Vdss; for half-life: read-out: IV PK t1/2 (converted)
[1] = test system: Yamato (SS18-SSX fusion; BAF perturbed) cells; experiment: Confluence perturbation (IncuCyte S3) in Yamato cells; assay type: cell-based; conditions: 10 nM to 10^4 nM, single dose, 20-day period; FIG. 4, 16, 17; SW982 cells also tested
Protocol: FIG. 4, FIG. 16, and FIG. 17 are line graphs illustrating the confluence caused by Compound 172 and Compound 176 at various concentrations. The x-axis is time measured in days and the y axis is confluence measured as a percentage of control. The compounds were incubated at 10 nM, 32 nM, 100 nM, 316 nM, 1000 nM, and 10^4 nM concentrations at a single dose. The compounds were tested in a Yamato (SS18-SSX fusion; BAF perturbed) cells and SW982 (BAF wildtype) cells.
Compound 172 was serially diluted in DMSO and 200 nL were dispensed into 96 well tissue-culture treated plates by the Echo acoustic liquid handler. Yamato cells were counted and adjusted to 11,000 cells/mL with DMEM media supplemented with 10% heat-inactivated FBS. 200 ul of the cell suspension was dispensed into each well. The plate was sealed with a gas-permeable membrane and confluence was measured in a temperature- and humidity-controlled incubator (37° C., 5% CO2) over a 20-day period at 6-hour intervals by the IncuCyte S3. […]
Compound 176 and a comparator BRD9 inhibitor were serially diluted in DMSO and 200 nL were dispensed into 96 well tissue-culture treated plates by the Echo acoustic liquid handler. Yamato cells were counted and adjusted to 11,000 cells/mL with DMEM media supplemented with 10% heat-inactivated FBS. […]

PO PK, mouse = assay type: in vivo; conditions: for PO PK AUC(0-last) / PO PK Cmax: dose-normalised; for bioavailability / half-life: in vivo; for bioavailability: read-out: PO PK F%; for half-life: read-out: PO PK t1/2 (converted)
[2] = test system: Yamato-SS xenograft model; experiment: Tumor volume in the Yamato-SS xenograft (CDX) model; assay type: in vivo, mouse
Plasma stability, dog = assay type: in vitro ADME
[3] = Hepatocyte stability, human; assay type: in vitro ADME; conditions: human hepatocytes; read-out: Hepatocyte stability, Clint scaled ws
PPB, mouse = assay type: in vitro ADME; conditions: plasma
Yamato-SS = experiment: Synovial sarcoma xenograft model Yamato-SS, tumor volume; assay type: in vivo; conditions: BALB/c nude mice
Protocol: (§1) Yamato-SS cells were maintained in vitro until exponential growth phase and inoculated subcutaneously into BALB/c nude mice at the right flank for tumor development. Treatments of Compound 172 were started at the appropriate tumor volume. Mice were treated with 40 mg/kg PO QD of Compound 172 and tumor volumes (x-axis) were measured twice a week using a caliper. The x-axis is time after start of treatment measured in days and the y-axis is tumor volume measured in mm^3.
Yamato-SS cells were maintained in vitro until exponential growth phase and inoculated subcutaneously into BALB/c nude mice at the right flank. Treatments of Compound 172 were started at the appropriate tumor volume. Mice were randomized into groups and treated with 6, 17, or 50 mg/kg PO QD of Compound 172 and tumor volumes (x-axis) were measured twice a week using a caliper. The x-axis is time after start of treatment measured in days and the y-axis is tumor volume measured in mm^3.
as §1, with “176” for “172”, “treated as indicated” for “treated”, “with” for “with 40 mg/kg PO QD of”

E3 = E3 (Homo sapiens, UniProt Q96SW2); experiment: FP-E3 binding (Kd)
BRD9 [4] = molecular target: T1, BRD9 (Homo sapiens, UniProt Q9H8M2); experiment: Western blot of BRD9, BRD4 and BRD7 in Yamato-SS cells; assay type: cell-based; design: endogenous in cells; host or cells: Yamato-SS (human synovial sarcoma); conditions: FIG. 3
T1 sequence (Q9H8M2 1-597): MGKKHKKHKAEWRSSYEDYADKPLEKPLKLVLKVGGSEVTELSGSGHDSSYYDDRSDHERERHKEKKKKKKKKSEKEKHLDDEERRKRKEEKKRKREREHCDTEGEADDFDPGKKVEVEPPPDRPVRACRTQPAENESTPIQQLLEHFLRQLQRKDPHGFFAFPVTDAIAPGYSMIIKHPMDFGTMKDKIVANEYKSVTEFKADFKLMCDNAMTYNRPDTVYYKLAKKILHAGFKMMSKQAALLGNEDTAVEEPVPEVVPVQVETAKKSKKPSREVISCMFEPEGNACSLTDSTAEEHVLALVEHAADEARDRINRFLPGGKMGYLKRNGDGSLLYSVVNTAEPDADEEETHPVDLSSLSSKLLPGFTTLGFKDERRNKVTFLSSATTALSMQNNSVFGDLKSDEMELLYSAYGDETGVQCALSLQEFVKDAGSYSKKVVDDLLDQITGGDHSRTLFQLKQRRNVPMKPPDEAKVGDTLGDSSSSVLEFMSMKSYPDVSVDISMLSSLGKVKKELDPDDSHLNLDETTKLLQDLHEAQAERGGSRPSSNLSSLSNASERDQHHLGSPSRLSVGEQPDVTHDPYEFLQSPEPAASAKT
Protocol: After treatment cells were collected, lysed in RIPA buffer supplemented with 2× proteasome/protease inhibitor, and protein concentrations were determined by Pierce™ BCA Protein Assay Kit. Samples were diluted to appropriate concentrations and run in a western blot.

CYP 3A4 = CYP 3A4 (Homo sapiens, UniProt P08684); experiment: CYP inhibition 3A4; assay type: in vitro ADME
BRD9 [5] = molecular target: BRD9 (Canis lupus familiaris, UniProt A0A8I3PU24); experiment: BRD9 degradation in dog cells (24 h); assay type: cell-based
Chain of BRD9 (Canis lupus familiaris, UniProt A0A8I3PU24) (A0A8I3PU24 1-600): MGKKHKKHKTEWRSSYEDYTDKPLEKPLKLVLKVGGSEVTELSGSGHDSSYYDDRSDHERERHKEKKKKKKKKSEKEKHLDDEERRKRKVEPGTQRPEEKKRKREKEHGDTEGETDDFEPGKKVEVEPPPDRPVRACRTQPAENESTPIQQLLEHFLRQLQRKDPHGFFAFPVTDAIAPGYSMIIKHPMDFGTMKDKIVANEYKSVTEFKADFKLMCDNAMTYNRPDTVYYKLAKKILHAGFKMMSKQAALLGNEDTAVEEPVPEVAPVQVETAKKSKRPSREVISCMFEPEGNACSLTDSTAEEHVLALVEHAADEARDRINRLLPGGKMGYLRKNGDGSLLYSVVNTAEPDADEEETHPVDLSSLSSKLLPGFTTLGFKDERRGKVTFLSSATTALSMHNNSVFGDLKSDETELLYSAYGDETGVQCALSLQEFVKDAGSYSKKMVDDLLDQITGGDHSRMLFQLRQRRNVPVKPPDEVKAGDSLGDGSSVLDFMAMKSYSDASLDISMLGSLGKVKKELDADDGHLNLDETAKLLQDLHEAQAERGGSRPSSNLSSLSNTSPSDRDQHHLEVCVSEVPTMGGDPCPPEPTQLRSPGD

Chain of CYP 3A4 (P08684 whole entry): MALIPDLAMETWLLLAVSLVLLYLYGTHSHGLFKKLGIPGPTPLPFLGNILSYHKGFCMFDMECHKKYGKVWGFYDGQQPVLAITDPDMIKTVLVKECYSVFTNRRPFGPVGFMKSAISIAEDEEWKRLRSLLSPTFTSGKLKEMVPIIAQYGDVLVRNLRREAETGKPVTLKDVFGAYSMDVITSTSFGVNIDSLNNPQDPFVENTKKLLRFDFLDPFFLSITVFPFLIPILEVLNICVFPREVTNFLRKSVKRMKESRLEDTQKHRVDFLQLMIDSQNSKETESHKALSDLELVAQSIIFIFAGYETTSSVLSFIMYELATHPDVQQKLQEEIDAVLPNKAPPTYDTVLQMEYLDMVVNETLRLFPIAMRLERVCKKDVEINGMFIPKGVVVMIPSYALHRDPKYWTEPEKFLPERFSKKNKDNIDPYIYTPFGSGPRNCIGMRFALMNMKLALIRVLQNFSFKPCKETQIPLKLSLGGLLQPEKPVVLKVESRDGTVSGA
Chain of E3 (Q96SW2 whole entry): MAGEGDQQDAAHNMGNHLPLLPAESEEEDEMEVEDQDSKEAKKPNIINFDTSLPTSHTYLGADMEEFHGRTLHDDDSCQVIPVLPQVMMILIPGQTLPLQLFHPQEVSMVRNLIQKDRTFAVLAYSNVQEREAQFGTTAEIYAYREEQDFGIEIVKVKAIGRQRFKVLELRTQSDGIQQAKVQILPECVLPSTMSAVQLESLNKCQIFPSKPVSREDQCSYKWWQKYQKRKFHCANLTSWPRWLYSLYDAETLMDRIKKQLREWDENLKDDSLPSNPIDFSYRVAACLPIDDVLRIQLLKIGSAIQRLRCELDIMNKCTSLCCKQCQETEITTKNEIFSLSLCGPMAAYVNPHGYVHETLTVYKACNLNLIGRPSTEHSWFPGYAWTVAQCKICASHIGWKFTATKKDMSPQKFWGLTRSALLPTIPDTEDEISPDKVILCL

Structure (SMILES) | Stability (plasma) % remaining @3 hrs (Plasma stability, mouse) [%] | Stability (plasma) % remaining @3 hrs (Plasma stability, rat) [%] | IV PK AUC(0-last) (IV PK, mouse) | IV PK Cmax (IV PK, mouse) | clearance (IV PK, mouse) [L/h/kg] | Vd (IV PK, mouse) [L/kg] | half-life (IV PK, mouse) [h] | confluence as a percentage of control [1] | PO PK AUC(0-last) (PO PK, mouse) | PO PK Cmax (PO PK, mouse) | bioavailability (PO PK, mouse) [%] | half-life (PO PK, mouse) [h] | Stability (plasma) % remaining @3 hrs (Plasma stability, dog) [%] | CLint scaled [3] [L/h/kg] | fraction unbound (PPB, mouse) | further results
COc1cc(-c2cn(C)c(=O)c(C)c2C)cc(OC)c1CN1CCC(N2CCN(c3ccc(NC4CCC(=O)NC4=O)cc3F)CC2)C(F)(F)C1 (single isomer, unassigned) [Compound 176, 3-[4-[4-[1-[[2,6-dimethoxy-4-(1,4,5-trimethyl-6-oxo-3-pyridyl)phenyl]methyl]-3,3-difluoro-4-piperidyl]piperazin-1-yl]-3-fluoro-anilino]piperidine-2,6-dione] | 85 | 88 | 2724 (h*ng/mL)/(mg/kg) | 720 [ng/mL]/(mg/kg) | 0.372 | 2 | 3.7 | A dose response is clearly visible | 1999 (h*ng/mL)/(mg/kg) | 346 (ng/mL)/(mg/kg) | 74 | 3.5 | 100 | 0.564 | 0.034 | mean tumor volume+SEM ([2]; synovial sarcoma CDX model (Yamato SS), various concentrations, FIG. 21): efficacy; tumor volume after treatment, Yamato-SS xenograft (Yamato-SS; treated as indicated, FIG. 21): strong effect
COc1cc(-c2cn(C)c(=O)c(C)c2C)cc(OC)c1CN1CCC(N2CCN(c3ccc(NC4CCC(=O)NC4=O)cc3F)CC2)C(F)(F)C1 (stereo not shown) [Compound 172, 3-[4-[4-[1-[[2,6-dimethoxy-4-(1,4,5-trimethyl-6-oxo-3-pyridyl)phenyl]methyl]-3,3-difluoro-4-piperidyl]piperazin-1-yl]-3-fluoro-anilino]piperidine-2,6-dione] | 90.3 | 97.0 | 4942 (h*ng/mL)/(mg/kg) | 1228 [ng/mL]/(mg/kg) | 0.204 | 1.1 | 3.6 | A dose response is clearly visible | 5947 (h*ng/mL)/(mg/kg) | 844 (ng/mL)/(mg/kg) | 122 | 3.3 | 80.2 | 0.564 | 0.018 | Kd (E3): 0.95 µM; response of tumor volume to various concentrations ([2]; Yamato-SS xenograft model, FIG. 7): dose dependent efficacy; degradation of BRD9 versus BRD4 and BRD7, western blot (BRD9 [4]): dose response degradation specific to BRD9, and not bromodomain containing proteins BRD4 and BRD7; IC50 (CYP 3A4): 18.2 µM; tumor volume after treatment, Yamato-SS xenograft (Yamato-SS; 40 mg/kg PO QD, FIG. 1): strong effect; tumor volume after treatment, Yamato-SS xenograft, dose response (Yamato-SS; 6, 17, or 50 mg/kg PO QD, FIG. 7): dose dependent efficacy; BRD9 degradation dog cells (24 h), percent (BRD9 [5]): 36.4%; DC50 (BRD9 [5]; read-out: BRD9 degradation dog cells (24 h), concentration): 0.099 µM
